According to patent US20230190707A1, “COMPOSITIONS AND METHODS FOR ENHANCING CANCER IMMUNOTHERAPY” (FRED HUTCHINSON CANCER CENTER, priority 2020, published 2023):

Tests used:
OT-1 T cells [1] = assay: Intracellular cytokine staining of OT-1 T cells; assay type: cell-based, mouse; details: higher doses
Experimental: OT-1 cells were prepared and incubated with ovalbumin-expressing tumors as described above in the LAMP-1 assay. For some experiments OT-1 cells were instead left unstimulated (DMSO) or treated with PMA 1 μg/mL+ionomycin 1 μM as a supraphysiologic stimulus. In all cases, T cells underwent a 5-6 hour incubation period in the presence of DMSO or splicing modulators at the indicated concentrations, and with brefeldin A and monensin present for the entire duration. Cells were subsequently washed, stained for surface markers, and then fixed/permeabilized for intracellular staining of the indicated cytokines according to manufacturer instructions (BD Biosciences).

[2] = system: T cells stimulated with anti-CD3 and CD28 antibodies; assay: Gene expression program of activated T cells (RNA-seq); assay type: cell-based, mouse; details: ex vivo anti-CD3 and CD28 stimulation in presence of drug
Experimental: (§1) Plates were coated with 10 μg/mL anti-CD3 (clone 145-2C11, Biolegend Cat. 100302) and 2 μg/mL anti-CD28 (clone 37.51, Biolegend Cat. 102102) in PBS overnight at 4° C. and washed twice with cold PBS prior to use. CFSE-labeled CD5-selected splenic T cells from naïve C57BL/6J mice were obtained identically as for adoptive cell transfer, and 5×10^4 cells incubated with coated plates in the presence of splicing inhibitor drugs at the indicated concentrations, followed by analysis by standard flow cytometry on day 3. Of note, for RNA-seq analyses, T cells were not labeled with CFSE, and underwent activation for 4 days (96 hours) in the presence of various splicing modulator drugs to harmonize experimental conditions with RNA-seq analyses of tumors treated with splicing inhibitors. For the RNA-seq experiments only, T cells in all conditions were also incubated with IL-2 at 50 U/mL to maximize viability and yield.
Bulk lung and colon were homogenized using a Qiagen TissueRuptor. For all tissues and cell types, RNA was extracted using an RNeasy kit (Qiagen, Frederick, Md.) and quantified using a NanoDrop 8000 (ThermoFisher Scientific). A minimum of 500 ng of high-quality RNA (as determined by Agilent Bioanalyzer) per sample or replicate was used for library preparation. Poly(A)-selected, strand-specific (dUTP method) Illumina libraries were prepared with a modified TruSeq protocol and sequenced on the Illumina HiSeq 2000 (˜100M 2×101 bp paired-end reads per sample or replicate).

[3] = system: CD8^+ T cell proliferation; assay: Mixed leukocyte reaction with BMDCs loaded with lysates of drug-treated MC38 cells; assay type: cell-based, mouse; details: wild-type BMDCs loaded with lysates of treated MC38 cells; day 5
Experimental: RBC lysed bone marrow obtained from the femurs and tibias of C57BL/6 or P2 microglobulin deficient mice (Jackson Laboratories Cat. 2087) were cultured with mouse IL-3 (PeproTech Cat. 213-13) and mouse FLT3 ligand (PeproTech Cat. 250-31L) both at 10 ng/mL each in RPMI+10% FCS for 7 days to generate bone marrow derived dendritic cells. Separately, […] MC38 treated with splicing inhibitors vs. DMSO or expressing chicken ovalbumin were harvested, washed and resuspended in sterile PBS, and subjected to five cycles of rapid freeze-thaw (alternating between 37° C. and dry ice/acetone) to generate a cell lysate. After brief centrifugation at 100×g, the soluble fraction in PBS was added to bone marrow derived DCs and left to incubate overnight for antigen phagocytosis in the presence of LPS (ThermoFisher Cat. 00-4976-93). DCs were subsequently washed three times to remove cell-free lysates and LPS and incubated in a 1:1 ratio with CFSE-labeled B6 splenic T cells (10^5 stimulators with 10^5 responders) as described above. The MLR was analyzed at day 5 by flow cytometry.

donor T cells = assay: CFSE adoptive T cell transfer with in vivo splicing modulator treatment; details: mouse, in vivo
Experimental: Splenic T cells were obtained from B6 or CD45.1 donors by CD5 positive selection (Miltenyi Biotec, Cat. 130-049-301), labeled with CellTrace CFSE (ThermoFisher Cat. C34570) at 10 μM, and adoptively transferred by tail vein injection into lethally irradiated B6, Balb/c, or LP/J recipients, with […] labeled donor T cells transferred per recipient. All recipients were irradiated on day −1 prior to adoptive T cell transfer with 7 Gy as a single fraction and continuously received splicing inhibitor drugs or vehicle control at the indicated doses, from day −1 until day of sacrifice, with the initial dose of drug at least 4 hours after lethal irradiation. Indisulam and MS-023 were solubilized for in vivo administration and animals were treated as above. Pladienolide B (Tocris, Cat. 6070) and GEX1A (Cayman Chemicals, Cat. 25136) were both dissolved in vehicle (10% ethanol and 4% Tween-80 in sterile PBS) and administered i.p., with pladienolide B dosed at 10 mg/kg every other day, and GEX1A dosed at 1.25 mg/kg every four days. For in vivo use, EPZ015666 was dissolved in DMSO and solubilized in 0.5% methylcellulose in water to 20 mg/mL; animals were treated daily with 200 mg/kg by oral gavage.

OT-1 T cells [4] = assay: LAMP-1 T cell degranulation assay; assay type: cell-based, mouse; details: higher doses
Experimental: OT-1 cells were generated as described for the cytotoxicity assay and incubated with ovalbumin-expressing tumor cell lines (pre-treated overnight with IFNγ 100 U/mL to upregulate cell-surface MHC I) in the presence of DMSO or varying concentrations of splicing modulator drugs as indicated, in the presence of LAMP-1 antibody for 5-6 hours under standard incubator conditions. After the first hour of incubation, BD GolgiPlug™ (brefeldin A) and BD GolgiStop™ (monensin) was added at […] respectively into cells. At the end of incubation, cells were washed and stained for cell surface markers prior to standard flow cytometry.

[5] = Histologic evaluation of immune-related tissue toxicities; assay type: in vivo, mouse; details: tumor-bearing mice
Experimental: Animal tissues were fixed in 4% paraformaldehyde, decalcified (for bone), dehydrated and paraffin embedded. Blocks were sectioned and stained with hematoxylin and eosin or anti-CD8. Images were acquired using an Axio Observer A1 microscope (Carl Zeiss, Oberkochen, Germany) or scanned using an Aperio AT slide scanner (Leica Biosystems, Buffalo Grove, Ill.). Automated quantification of infiltrating CD8^+ T cells was performed using HALO software (Indica labs, Albuquerque, N. Mex.). Pathologic evaluation of immune-related tissue toxicities was performed in a blinded fashion by one of the authors who is a trained pathologist (Ben Durham, MD).

CD5^+ splenic T cells = assay: Anti-CD3/CD28 T cell activation and proliferation (CFSE); assay type: cell-based, mouse
Experimental: Cell lines were grown with half-log10 concentrations of the indicated drug in 4 to 8 technical replicates under standard conditions until the control condition (DMSO or vehicle) was confluent by microscopy. For tumor cell lines, viable cells were quantified via the CellTiter-Glo® assay (Promega Cat. G7573) as per manufacturer instructions. For the ex vivo proliferation of T cells, viable cells were instead quantified via flow cytometry using counting beads. The percentage or number of viable cells with drug treatment was calculated relative to DMSO control (as 100%). […] For absolute cell number, Annexin V+, CD25+, and PD1+ flow cytometry data presented in Figure S4, dose-response models and IC50 values were computed using the R language's dre package (Ritz, C., et al. (2015). Dose-Response Analysis Using R. PLoS One 10, e0146021).
as §1

| SMILES | ability of OT-1 T cells to secrete IFNγ or TNFα (OT-1 T cells [1]) | genes normally upregulated upon T cell activation [2] | CD8^+ T cell proliferation vs DMSO- or no lysate-pulsed control BMDCs [3] | in vivo T cell proliferation or activation in response to alloantigen (donor T cells) | ability of OT-1 T cells to degranulate intracellular cytolytic molecules (OT-1 T cells [4]) | histologic inflammation or immune infiltrates in skin, lung, gut, or liver [5] | T cell apoptosis and activation markers (CD5^+ splenic T cells) | IC50 (CD5^+ splenic T cells; Mus musculus, T-cell, 72 h, three days of continuous drug exposure, read-out: IC50 values, T cell proliferation following stimulation) |
| --- | --- | --- | --- | --- | --- | --- | --- | --- |
| CC(C)Oc1ccc(-c2c[nH]cc2CN(C)CCN)cc1 [MS-023] | did not inhibit | much milder changes | more strongly promoted CD8^+ T cell proliferation | minimal impairment | did not inhibit | did not result in overt histologic inflammation | much milder effects | – |
| NS(=O)(=O)c1ccc(S(=O)(=O)Nc2cccc3c(Cl)c[nH]c23)cc1 [indisulam] | did not inhibit | much milder changes | more strongly promoted CD8^+ T cell proliferation | minimal impairment | did not inhibit | did not result in overt histologic inflammation | much milder effects | 1 to 10 µM |
